This is an account of results in patent US20250346606A1, “CAMPTOTHECIN COMPOUND, PREPARATION METHOD THEREFOR, AND APPLICATION THEREOF” (SICHUAN KELUN-BIOTECH BIOPHARMACEUTICAL CO., LTD., priority 2021, published 2025).

pIC50: −log10 of the molar value. Where two headings read alike, the source gives them in different places.

What all share (assay type): cell-based, Human
Assay [1] deals with HT29 cells. Kind of assay: Inhibitory effect of compounds on HT29 cell proliferation. Particulars: read-out: IC50, inhibitory activity on HT29 cell proliferation. The gist of the method:
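Adherent HT29 cells incubated with diluted compounds for 72 h; viability read by luminescence (Cell Counting-Lite 2.0, 10 min). Inhibition calculated against cell-free background and vehicle-treated cells; IC50 from four-parameter curve fit.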

The subject of assay [2] is HCC1806 cells. Kind of assay: Inhibitory effect of compounds on HCC1806 cell proliferation. The protocol: (1) Cell plating: First, tumor cells HCC1806 were cultured in corresponding medium, then digested with trypsin, centrifuged, resuspended, and counted, and the cells were adjusted to an appropriate concentration for plating.
(§1) Co-incubation of the compound of the present disclosure and tumor cells: after the cells adhered to the wall, the medium was removed, and the diluted bioactive molecule (the compound of the present disclosure) was added to the wells of the above plate, and incubated for 72 h.
(§2) In vitro cell viability detection: After the incubation, 50 μL of Cell Counting-Lite™ 2.0 reagent (Vazyme/Novazyme) was added to each well, shaken and mixed well in the dark, reacted for 10 minutes, and then the detection was carried out with a microplate reader (manufacturer: BMG, Model: PHERAStar-FS) for reading. The background RLU was obtained by using cell-free medium (with Cell Counting-Lite™), and the vehicle RLU was obtained by using cell-containing medium (with Cell Counting-Lite™). Cell inhibition rate=1−(sample RLU−background RLU)/(solvent RLU−background RLU)×100%. According to the four-parameter model fitting curve, the half maximal inhibitory concentration (IC50) of the compound was calculated, and the detection results were shown in Table 6.

In assay [3] the test system is SKOV-3 cells. The assay can be described thus: Inhibitory effect of compounds on SKOV-3 cell proliferation. Conditions: read-out: IC50, inhibitory activity on SKOV-3 cell proliferation. The protocol: (1) Cell plating: First, tumor cells SKOV-3 were cultured in corresponding medium, then digested with trypsin, centrifuged, resuspended, and counted, and the cells were adjusted to an appropriate concentration for plating.
as §1
as §2, with “8.” for “6.”

Assay [4] deals with NCI-H358 cells. Kind of assay: Inhibitory effect of compounds on NCI-H358 cell proliferation. Put shortly:
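Adherent NCI-H358 cells were exposed to compound for 72 h, then viability was read by luminescence (Cell Counting-Lite 2.0). Inhibition calculated from RLU relative to cell-free background and vehicle wells; IC50 from a four-parameter fit.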

The test system of assay [5] is NCI-N87 cells. Kind of assay: Inhibitory effect of compounds on NCI-N87 cell proliferation. The gist of the method: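 Adherent NCI-N87 cells were exposed to compound dilutions for 72 h. Viability measured by Cell Counting-Lite 2.0 luminescence, with inhibition calculated against vehicle and cell-free background RLU. IC50 from four-parameter fit.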
Assay [6] deals with HCC70 cells. Kind of assay: Inhibitory effect of compounds on HCC70 cell proliferation. Particulars: read-out: IC50, inhibitory activity on HCC70 cell proliferation. Here is the method:
(1) Cell plating: First, tumor cells HCC70 were cultured in corresponding medium, then digested with trypsin, centrifuged, resuspended, and counted, and the cells were adjusted to an appropriate concentration for plating.
as §1
as §2, with “16.” for “6.”

Assay [7] deals with MDA-MB-231 cells. The assay can be described thus: Inhibitory effect of compounds on MDA-MB-231 cell proliferation. Conditions: read-out: IC50, inhibitory activity on MDA-MB-231 cell proliferation. Here is the method: (1) Cell plating: First, tumor cells MDA-MB-231 were cultured in corresponding medium, then digested with trypsin, centrifuged, resuspended, and counted, and the cells were adjusted to an appropriate concentration for plating.
as §1
as §2, with “18.” for “6.”

Assay [8] deals with Hela cells. Kind of assay: Inhibitory effect of compounds on Hela cell proliferation. Conditions: read-out: IC50, inhibitory activity on Hela cell proliferation. The protocol: (1) Cell plating: First, tumor cells Hela were cultured in corresponding medium, then digested with trypsin, centrifuged, resuspended, and counted, and the cells were adjusted to an appropriate concentration for plating.
as §1
as §2, with “14.” for “6.”

Assay [9] deals with A549 cells. The assay can be described thus: Inhibitory effect of compounds on A549 cell proliferation. Conditions: read-out: IC50, inhibitory activity on A549 cell proliferation. Here is the method: (1) Cell plating: First, tumor cells A549 were cultured in the corresponding medium, then digested with trypsin, centrifuged and resuspended, and counted, and the cells were adjusted to an appropriate concentration for plating.
as §1
as §2, with “activity” for “viability”, “4.” for “6.”

Assay [10] has as its system Jeko-1 cells. Kind of assay: Inhibitory effect of compounds on Jeko-1 cell proliferation. Conditions: Jeko-1 human mantle cell lymphoma cells, 72 h incubation, Cell Counting-Lite 2.0; read-out: IC50, inhibitory activity on Jeko-1 cell proliferation. The protocol:
(1) Cell plating: First, tumor cells Jeko-1 were cultured in corresponding medium, then digested with trypsin, centrifuged, resuspended, and counted, and the cells were adjusted to an appropriate concentration for plating.
as §1
as §2, with “20.” for “6.”

Setting [11] is: HT-29, HT29 human colon cancer cells, 72 h incubation, Cell Counting-Lite 2.0.
[12] abbreviates: NCI-N87 human gastric cancer cells, 72 h incubation, Cell Counting-Lite 2.0, read-out: IC50, inhibitory activity on NCI-N87 cell proliferation.
Where [13] appears, read: Homo sapiens, HCC1806, 72 h, read-out: IC50, inhibitory activity on HCC1806 cell proliferation, HCC1806 human breast squamous carcinoma cells, 72 h incubation, Cell Counting-Lite 2.0.
Where [14] appears, read: Homo sapiens, NCI-H358, 72 h, read-out: IC50, inhibitory activity on NCI-H358 cell proliferation, NCI-H358 human non-small cell lung cancer cells, 72 h incubation, Cell Counting-Lite 2.0.

Take `CC[C@@]1(O)C(=O)OCc2c1cc1n(c2=O)Cc2c-1nc1cc(F)c(C)c3c1c2[C@@](C)(N)CC3` (single isomer, unassigned) [Example 12 (5-13-A)]: the pIC50 in assay [1] (setting [11]) was 9.06; in assay [2] (HCC1806 human breast squamous carcinoma cells, 72 h incubation, Cell Counting-Lite 2.0, read-out: IC50, inhibitory activity on HCC1806 cell proliferation), 9.02; in assay [3] (SK-OV-3, SKOV-3 human ovarian cancer cells, 72 h incubation, Cell Counting-Lite 2.0), 8.68; in assay [4] (NCI-H358 human non-small cell lung cancer cells, 72 h incubation, Cell Counting-Lite 2.0, read-out: IC50, inhibitory activity on NCI-H358 cell proliferation), 8.15; in assay [5] (setting [12]), 8.63; in [6] (HCC70 human breast cancer cells, 72 h incubation, Cell Counting-Lite 2.0), 7.44. Besides, the pIC50 in [7] (MDA-MB-231 human breast cancer cells, 72 h incubation, Cell Counting-Lite 2.0) is 6.48.
With `CC[C@@]1(O)C(=O)OCc2c1cc1n(c2=O)Cc2c-1nc1cc(Cl)c(C)c3c1c2[C@@H](NC(=O)CO)CC3` [Example 3 (2-1-A), N-((1S,9S)-5-chloro-9-ethyl-9-hydroxy-4-methyl-10,13-dioxo-2,3,9,10,13,15-hexahydro-1H,12H-benzo[de]pyrano[3′,4′:6,7]indolizino[1,2-b]quinolin-1-yl)-2-hydroxyacetamide], the pIC50 in assay [1] (Homo sapiens, HT-29, 72 h) was 8.30; in assay [2] (setting [13]), 8.84; in assay [3] (Homo sapiens, SK-OV-3, 72 h), 8.15; in assay [4] (setting [14]) it was 7.16; in assay [8] (Homo sapiens, HeLa, 72 h), 7.77; in [7] (Homo sapiens, MDA-MB-231, 72 h), 6.52.
As to `CC[C@@]1(O)C(=O)OCc2c1cc1n(c2=O)Cc2c-1nc1cc(Cl)c(C)c3c1c2[C@H](NC[C@H](C)O)CC3` [Example 4 (2-7-B), (2S)—N-((1R,9S)-5-chloro-9-ethyl-9-hydroxy-4-methyl-10,13-dioxo-2,3,9,10,13,15-hexahydro-1H,12H-benzo[de]pyrano[3′,4′:6,7]indolizino[1,2-b]quinolin-1-yl)-2-hydroxypropylamine], the pIC50 in assay [1] (Homo sapiens, HT-29, 72 h) was 8.26; in assay [9] (Homo sapiens, A549, 72 h), 7.79; in assay [3] (Homo sapiens, SK-OV-3, 72 h) it was 8.02; in [4] (setting [14]), 7.29; in [6] (Homo sapiens, HCC70, 72 h), 6.72.
On to `CC[C@@]1(O)C(=O)OCc2c1cc1n(c2=O)Cc2c-1nc1cc(Cl)c(C)c3c1c2[C@@H](NC(=O)[C@H](O)C1CC1)CC3` [Example 5 (2-12-C), (2R)—N-((1S,9S)-5-chloro-9-ethyl-9-hydroxy-4-methyl-10,13-dioxo-2,3,9,10,13,15-hexahydro-1H,12H-benzo[de]pyrano[3′,4′:6,7]indolizino[1,2-b]quinolin-1-yl)-2-cyclopropyl-2-hydroxyacetamide], for which the pIC50 in [1] (Homo sapiens, HT-29, 72 h) is 8.83; in assay [9] (Homo sapiens, A549, 72 h) it was 8.18; in assay [2] (setting [13]) it was 8.68; in assay [3] (Homo sapiens, SK-OV-3, 72 h), 8.19; in assay [4] (setting [14]) it was 7.64; in [5] (Homo sapiens, NCI-N87, 72 h, read-out: IC50, inhibitory activity on NCI-N87 cell proliferation, NCI-N87 human gastric cancer cells, 72 h incubation, Cell Counting-Lite 2.0), 8.35. Further, in assay [6] (Homo sapiens, HCC70, 72 h), the pIC50 is 6.68.
As to `CC[C@@]1(O)C(=O)OCc2c1cc1n(c2=O)Cc2c-1nc1cc(F)c(C)cc1c2CNC(=O)C1(O)CC1` [Example 11 (4-10), (S)—N-((4-ethyl-8-fluoro-4-hydroxy-9-methyl-3,14-dioxo-3,4,12,14-tetrahydro-1H-pyrano[3′,4′:6,7]indolizino[1,2-b]quinolin-11-yl)methyl)-1-hydroxycyclopropane-carboxamide], the pIC50 in assay [1] (setting [11]) was 9.28; in assay [9] (A549 human lung cancer cells, 72 h incubation, Cell Counting-Lite 2.0) it was 7.16; in assay [5] (setting [12]), 8.64; in [8] (Hela human cervical cancer cells, 72 h incubation, Cell Counting-Lite 2.0) it was 8.52; in assay [10], 9.35.
